According to ChEMBL document CHEMBL4011633, “Donepezil-Based Central Acetylcholinesterase Inhibitors by Means of a "Bio-Oxidizable" Prodrug Strategy: Design, Synthesis, and in Vitro Biological Evaluation” (J Med Chem, 2017):
The source made the active and inactive calls. No cut-off for these calls is given here.

Columns and labels:
Acetylcholinesterase [1] = target: T1, Acetylcholinesterase (Homo sapiens, UniProt P22303); experiment: Inhibition of AChE in human erythrocytes using acetylthiocholine iodide as substrate preincubated for 5 mins followed by substrate addition measured every minute for 10 mins by Ellman's spectrophotometric method; format: cell-based
[2] = Selectivity index, ratio of IC50 for equine serum BChE to IC50 for AChE in human erythrocytes; format: cell-based
Cholinesterase = Cholinesterase (Equus caballus, UniProt P81908)
Description: Inhibition of equine serum BChE using butyrylthiocholine iodide as substrate preincubated for 5 mins followed by substrate addition measured every minute for 10 mins by Ellman's spectrophotometric method

Mus musculus [3] = experiment: Toxicity in CD1 mouse brain at 10 mg/kg, ip qd administered daily for 14 days by macroscopic method; format: organism-based; settings: in vivo, 336 h
Mus musculus [4] = experiment: Toxicity in CD1 mouse heart at 10 mg/kg, ip qd administered daily for 14 days by macroscopic method; format: organism-based; settings: in vivo, 336 h
[5] = (§1) Prodrug activation in pH 7.4 PBS buffer at 25 uM assessed as (+/-)-1-[(3-Chlorophenyl)methyl]-4-[(5,6-dimethoxy-1-oxo-indan-2-yl)methyl]pyridin-1-ium-3-carboxamide Bromide formation after 180 mins in the presence of (+/-)-1-[(3-Chlorophenyl)methyl]-4-[(5,6-dimethoxy-1-oxo-indan-2-yl)methyl]pyridin-1-ium-3-carboxamide Bromide
[6] = Effective permeability of compound at pH 7.4 at 100 uM after 4 hrs by PAMPA; format: physicochemical; settings: read-out: Peff
[7] = as §1, with “10% methanolic silver nitrate” for “pH 7.4 PBS buffer”
[8] = as §1, with “2%” for “pH 7.4”, “riboflavin” for “buffer”
[9] = as §1, with “0.1%” for “pH 7.4”, “NAD+ riboflavin” for “buffer”
[10] = as §1, with “2%” for “pH 7.4”, “NAD+ riboflavin” for “buffer”
[11] = Antioxidant activity assessed as DPPH free radical scavenging after 40 mins incubation in dark; format: functional
Salmonella typhimurium [12] = experiment: Genotoxicity in Salmonella typhimurium TA98 after 90 mins by Ames test; format: toxicity; settings: salmonella enterica subsp. enterica serovar typhimurium, 1.5 h
Salmonella typhimurium [13] = experiment: Genotoxicity in Salmonella typhimurium TAMix after 90 mins by Ames test; format: toxicity; settings: salmonella enterica subsp. enterica serovar typhimurium, 1.5 h
[14] = Toxicity in ip dosed CD1 mouse assessed as mortality administered as qd after 48 hrs; format: organism-based; settings: in vivo
Mus musculus [15] = experiment: Toxicity in CD1 mouse assessed as mortality at 10 mg/kg, ip qd administered daily for 14 days; format: organism-based; settings: in vivo, 336 h
Mus musculus [16] = experiment: Toxicity in CD1 mouse brain at 10 mg/kg, ip qd administered daily for 14 days by microscopic method; format: organism-based; settings: in vivo, 336 h
Mus musculus [17] = experiment: Toxicity in CD1 mouse heart at 10 mg/kg, ip qd administered daily for 14 days by microscopic method; format: organism-based; settings: in vivo, 336 h
Mus musculus [18] = experiment: Toxicity in CD1 mouse kidney at 10 mg/kg, ip qd administered daily for 14 days by microscopic method; format: organism-based; settings: in vivo, 336 h
Mus musculus [19] = experiment: Toxicity in CD1 mouse liver at 10 mg/kg, ip qd administered daily for 14 days by microscopic method; format: organism-based; settings: in vivo, 336 h
Mus musculus [20] = experiment: Toxicity in CD1 mouse assessed as change in spleen texture at 10 mg/kg, ip qd administered for 14 days by microscopic method; format: organism-based; settings: in vivo, 336 h
Brain [21] = experiment: Prodrug activation in CD1 mouse brain at 10 mg/kg, ip qd administered daily for 14 days by LC-MS/MS analysis; format: organism-based; settings: in vivo, 336 h
Brain [22] = experiment: Prodrug activation in CD1 mouse brain at 10 mg/kg, ip qd after 24 hrs by LC-MS/MS analysis; format: organism-based; settings: in vivo
Mus musculus [23] = experiment: Toxicity in CD1 mouse kidney at 10 mg/kg, ip qd administered daily for 14 days by macroscopic method; format: organism-based; settings: in vivo, 336 h
Mus musculus [24] = experiment: Toxicity in CD1 mouse liver at 10 mg/kg, ip qd administered daily for 14 days by macroscopic method; format: organism-based; settings: in vivo, 336 h
Mus musculus [25] = experiment: Toxicity in CD1 mouse assessed as change in spleen texture at 10 mg/kg, ip qd administered for 14 days by macroscopic method; format: organism-based; settings: in vivo, 336 h
[26] = Prodrug activation in CD3OD solution assessed as (+/-)-1-[(3-Chlorophenyl)methyl]-4-[(5,6-dimethoxy-1-oxo-indan-2-yl)methyl]pyridin-1-ium-3-carboxamide Bromide formation at 10 mM after 4 to 10 mins in presence of DPPH radical solution by 1H NMR analysis
Acetylcholinesterase [27] = target: T1, Acetylcholinesterase; experiment: Inhibition of AChE (unknown origin)
Acetylcholinesterase [28] = target: T1, Acetylcholinesterase; experiment: Inhibition of human recombinant AChE-induced human amyloid beta (1 to 40 residues) aggregation at 100 uM after 24 hrs by thioflavine T fluorescence method
[29] = target: Amyloid-beta precursor protein (Homo sapiens) (UniProt P05067); experiment: Inhibition of amyloid beta (1 to 42 residues) (unknown origin) self-aggregation at 10 uM measured every 5 mins by ThT-fluorescence assay
SH-SY5Y = experiment: Cytotoxicity against human SH-SY5Y cells assessed as […] in cell viability at 0.1 to 1 mM after 24 hrs by fluorescence assay; format: cell-based; settings: 1000 µM

Cholinesterase, sequence (P81908 whole entry): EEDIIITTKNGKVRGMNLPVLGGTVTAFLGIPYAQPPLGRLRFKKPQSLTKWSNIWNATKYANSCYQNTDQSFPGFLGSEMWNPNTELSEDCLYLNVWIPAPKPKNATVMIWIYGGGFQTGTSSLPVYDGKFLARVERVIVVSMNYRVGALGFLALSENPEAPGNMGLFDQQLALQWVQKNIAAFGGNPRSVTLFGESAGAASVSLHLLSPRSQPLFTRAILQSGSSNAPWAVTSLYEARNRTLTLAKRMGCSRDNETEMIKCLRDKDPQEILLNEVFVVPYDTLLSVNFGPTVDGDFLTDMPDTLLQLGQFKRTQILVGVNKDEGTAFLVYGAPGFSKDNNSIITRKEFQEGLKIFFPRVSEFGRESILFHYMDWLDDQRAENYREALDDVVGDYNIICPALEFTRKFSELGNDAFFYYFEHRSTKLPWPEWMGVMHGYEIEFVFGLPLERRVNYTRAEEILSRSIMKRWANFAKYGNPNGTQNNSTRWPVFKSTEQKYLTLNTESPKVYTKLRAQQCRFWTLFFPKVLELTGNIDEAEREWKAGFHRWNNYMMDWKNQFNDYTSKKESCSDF
T1 sequence (P22303 whole entry): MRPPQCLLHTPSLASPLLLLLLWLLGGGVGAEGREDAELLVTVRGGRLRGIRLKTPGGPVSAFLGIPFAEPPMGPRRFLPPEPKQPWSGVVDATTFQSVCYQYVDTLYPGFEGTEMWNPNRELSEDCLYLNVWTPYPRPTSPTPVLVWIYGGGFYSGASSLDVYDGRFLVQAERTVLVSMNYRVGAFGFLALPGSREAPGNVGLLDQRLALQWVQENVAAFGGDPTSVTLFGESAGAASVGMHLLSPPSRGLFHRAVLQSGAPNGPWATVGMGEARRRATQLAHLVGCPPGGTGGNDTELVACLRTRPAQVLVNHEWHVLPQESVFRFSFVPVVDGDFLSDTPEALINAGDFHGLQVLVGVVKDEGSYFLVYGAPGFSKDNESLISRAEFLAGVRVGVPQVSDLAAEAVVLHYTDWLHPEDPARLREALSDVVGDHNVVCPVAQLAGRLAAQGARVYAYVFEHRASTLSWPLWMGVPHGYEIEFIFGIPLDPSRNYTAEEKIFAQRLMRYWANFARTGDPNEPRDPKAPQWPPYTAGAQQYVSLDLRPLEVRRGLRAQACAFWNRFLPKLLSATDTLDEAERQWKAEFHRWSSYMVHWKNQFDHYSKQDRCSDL
Amyloid-beta precursor protein (Homo sapiens), sequence (P05067 whole entry, the tested form may be a part): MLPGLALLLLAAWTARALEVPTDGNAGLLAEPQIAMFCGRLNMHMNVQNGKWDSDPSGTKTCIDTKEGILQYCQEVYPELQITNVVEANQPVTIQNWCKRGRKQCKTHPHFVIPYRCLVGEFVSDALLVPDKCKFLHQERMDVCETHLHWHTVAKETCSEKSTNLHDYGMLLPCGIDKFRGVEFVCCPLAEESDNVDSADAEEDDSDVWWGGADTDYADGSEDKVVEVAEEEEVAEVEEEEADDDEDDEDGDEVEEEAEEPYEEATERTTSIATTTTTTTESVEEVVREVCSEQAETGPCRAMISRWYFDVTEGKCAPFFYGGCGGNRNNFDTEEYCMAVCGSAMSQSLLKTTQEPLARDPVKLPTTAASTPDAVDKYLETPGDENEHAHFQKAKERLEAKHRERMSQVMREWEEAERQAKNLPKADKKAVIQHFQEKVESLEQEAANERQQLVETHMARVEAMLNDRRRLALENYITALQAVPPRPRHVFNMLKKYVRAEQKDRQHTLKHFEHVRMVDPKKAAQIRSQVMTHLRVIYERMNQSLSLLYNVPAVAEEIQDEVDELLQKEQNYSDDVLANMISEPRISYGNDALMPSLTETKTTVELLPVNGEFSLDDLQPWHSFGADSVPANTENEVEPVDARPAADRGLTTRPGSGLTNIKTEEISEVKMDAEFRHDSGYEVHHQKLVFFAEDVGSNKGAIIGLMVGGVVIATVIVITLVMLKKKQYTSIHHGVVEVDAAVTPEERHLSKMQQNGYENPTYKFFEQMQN

CNC(=O)c1c[n+](Cc2ccccc2C)ccc1CC1Cc2cc(OC)c(OC)cc2C1=O (racemic)
IC50 (Acetylcholinesterase [1]): 1 to 10 µM

CC(=O)C1=CN(Cc2ccccc2C)C=CC1CC1Cc2cc(C)ccc2C1=O (stereo not given)
IC50 (Acetylcholinesterase [1]): > 1 µM

COC(=O)c1c[n+](Cc2ccccc2C)ccc1CC1Cc2cc(OC)c(OC)cc2C1=O (racemic)
IC50 (Acetylcholinesterase [1]): 0.0058 µM | Ratio IC50 [2]: 309 | IC50 (Cholinesterase): 1.79 µM

COc1cc2c(cc1OC)C(=O)C(CC1C=CN(Cc3cccc(Cl)c3)C=C1C(N)=O)C2 (stereo not given)
Activity (Mus musculus [3]): Non-Toxic | Activity (Mus musculus [4]): Non-Toxic | Drug metabolism [5]: 1.6% | IC50 (Acetylcholinesterase [1]): > 1 µM | Papp at 4 h, 100 µM [6]: 25.6 ×10⁻⁶ cm/s | Drug metabolism [7]: 28% | Drug metabolism [8]: 77.9% | Drug metabolism [9]: 2.9% | Drug metabolism [10]: 39.6% | EC50 [11]: 90 µM | Activity (Salmonella typhimurium [12]): Non-Toxic | Activity (Salmonella typhimurium [13]): Non-Toxic | LD50 at 48 h [14]: > 50 mg/kg | Activity (Mus musculus [15]): Non-Toxic | Activity (Mus musculus [16]): Non-Toxic | Activity (Mus musculus [17]): Non-Toxic | Activity (Mus musculus [18]): Non-Toxic | Activity (Mus musculus [19]): Non-Toxic | Activity (Mus musculus [20]): Non-Toxic | Drug metabolism (Brain [21]): Metabolite_Notdetected | Drug metabolism (Brain [22]): Metabolite_Notdetected | Activity (Mus musculus [23]): Non-Toxic | Activity (Mus musculus [24]): Non-Toxic | Activity (Mus musculus [25]): Non-Toxic | Drug metabolism [26]: Metabolite detected

CC(=O)c1c[n+](Cc2ccccc2C)ccc1CC1Cc2cc(C)ccc2C1=O (racemic)
IC50 (Acetylcholinesterase [1]): 0.091 µM | Ratio IC50 [2]: 41.9 | IC50 (Cholinesterase): 3.81 µM

COC(=O)c1c[n+](Cc2ccccc2)ccc1CC1Cc2cc(OC)c(OC)cc2C1=O (racemic)
IC50 (Acetylcholinesterase [1]): 0.0256 µM | Ratio IC50 [2]: 119 | IC50 (Cholinesterase): 3.06 µM

COc1cc2c(cc1OC)C(=O)C(Cc1cc[n+](Cc3cccc(Cl)c3)cc1C(C)=O)C2 (racemic)
IC50 (Acetylcholinesterase [1]): 0.00327 µM | Ratio IC50 [2]: 1020

COc1cc2c(cc1OC)C(=O)C(Cc1cc[n+](Cc3cccc(C)c3)cc1C(C)=O)C2 (racemic)
IC50 (Acetylcholinesterase [1]): 0.014 µM | Ratio IC50 [2]: 427 | IC50 (Cholinesterase): 5.99 µM

CC(=O)c1c[n+](Cc2ccccc2C)ccc1CC1Cc2cc3c(cc2C1=O)OCO3 (racemic)
Ratio IC50 [2]: 26.9

COC(=O)c1cc2c(OC(=O)N(C)C)cccc2[n+](C)c1
IC50 (Acetylcholinesterase [27]): 0.02 µM

COC(=O)C1=CN(C)c2cccc(OC(=O)N(C)C)c2C1
IC50 (Acetylcholinesterase [27]): > 1000 µM

COc1cc2c(cc1OC)C(=O)C(Cc1cc[n+](Cc3ccccc3)cc1C#N)C2 (racemic)
IC50 (Acetylcholinesterase [1]): 0.00292 µM

COc1cc2c(cc1OC)C(=O)C(Cc1cc[n+](Cc3ccccc3C)cc1C(N)=O)C2 (racemic)
IC50 (Acetylcholinesterase [1]): 0.678 µM | IC50 (Cholinesterase): > 10 µM

CNC(=O)c1c[n+](Cc2ccccc2)ccc1CC1Cc2cc(OC)c(OC)cc2C1=O (racemic)
IC50 (Acetylcholinesterase [1]): > 1 µM | IC50 (Cholinesterase): 4.77 µM

COc1ccc2c(c1)CC(CC1C=CN(Cc3ccccc3C)C=C1C(C)=O)C2=O (stereo not given)
IC50 (Acetylcholinesterase [1]): > 1 µM | Papp at 4 h, 100 µM [6]: 14.8 ×10⁻⁶ cm/s

COc1cc2c(cc1OC)C(=O)C(Cc1cc[n+](Cc3cccc(Cl)c3)cc1C(N)=O)C2.[Br-] (racemic)
IC50 (Acetylcholinesterase [1]): 0.041 µM | inhibition (Acetylcholinesterase [28]): 41% | Papp at 4 h, 100 µM [6]: 0.15 ×10⁻⁶ cm/s | inhibition [29]: 25% | Activity (Salmonella typhimurium [12]): Non-Toxic | Activity (Salmonella typhimurium [13]): Non-Toxic | Activity (SH-SY5Y): Non-Toxic | LD50 at 48 h [14]: 70 mg/kg | IC50 (Cholinesterase): > 10 µM

CC(=O)C1=CN(Cc2ccccc2C)C=CC1CC1Cc2cc3c(cc2C1=O)OCO3 (stereo not given)
IC50 (Acetylcholinesterase [1]): > 1 µM | Papp at 4 h, 100 µM [6]: 14.3 ×10⁻⁶ cm/s

COc1cc2c(cc1OC)C(=O)C(CC1C=CN(Cc3ccccc3C)C=C1C(N)=O)C2 (stereo not given)
IC50 (Acetylcholinesterase [1]): > 1 µM

CC(=O)c1c[n+](Cc2ccccc2C)ccc1CC1Cc2cc(Cl)ccc2C1=O (racemic)
Ratio IC50 [2]: 13.9

COc1cc2c(cc1OC)C(=O)C(Cc1cc[n+](Cc3ccccc3Cl)cc1C(C)=O)C2 (racemic)
IC50 (Acetylcholinesterase [1]): 0.018 µM | Ratio IC50 [2]: 106 | IC50 (Cholinesterase): 1.92 µM

COc1cc2c(cc1OC)C(=O)C(CC1CCN(Cc3ccccc3)CC1)C2 (stereo not given) [DONEPEZIL]
Activity [11]: inactive | LD50 at 48 h [14]: 22.5 mg/kg

CCN(C)C(=O)Oc1cccc([C@H](C)N(C)C)c1 [RIVASTIGMINE]
LD50 at 48 h [14]: 6.2 mg/kg

COc1ccc2c(c1)CC(Cc1cc[n+](Cc3ccccc3C)cc1C(C)=O)C2=O.[Br-] (racemic)
Ratio IC50 [2]: 133 | Papp at 4 h, 100 µM [6]: 0.3 ×10⁻⁶ cm/s

CC(=O)C1=CN(Cc2ccccc2C)C=CC1CC1Cc2cc(Cl)ccc2C1=O (stereo not given)
IC50 (Acetylcholinesterase [1]): > 1 µM

CC(=O)c1c[n+](Cc2ccccc2C)ccc1CC1Cc2cc(C)c(C)cc2C1=O (racemic)
IC50 (Acetylcholinesterase [1]): 0.0277 µM | Ratio IC50 [2]: 6.95
